The text below walks through data of BindingDB's records for doi:10.1016/j.bmcl.2014.04.013 (University of Utah, 2014).

Each structure is given as a SMILES string.

In general, EC50 refers to the concentration needed to bring the measured effect to its halfway point.

The nature of this assay: Agonist activity at AHR in FVB/N mouse primary mammary epithelial cells assessed as blockade of mammary branching morphogenesis after 144 hrs by microscopic analysis in presence of FGF2.
On to `Clc1ccc(-c2nc(-c3ccccc3)no2)c(Cl)c1`, for which the EC50 is 1200 nM. The same measure for `Nc1cc(Cl)ccc1-c1nc(-c2ccccc2)no1`: 1400 nM; for `O=[N+]([O-])c1cc(F)ccc1-c1nc(-c2ccccc2)no1`: 2200 nM; for `Nc1cc(C(F)(F)F)ccc1-c1nc(-c2ccccc2)no1`: 3200 nM.

On to `Clc1ccc(-c2nc(-c3ccccc3)no2)c(Cl)c1Cl`, for which the EC50 is above 10000 nM.
